Experiments:
Sm-EboD [1] = target: T1, Sm-EboD (Sporocytophaga myxococcoides, UniProt P0DY70); assay: large-scale reaction, HR-MS, 1D and 2D NMR of isolated product; assay type: biochemical; details: NAD+, Co2+; Tris-HCl pH 7.5; 37°C
T1 sequence (P0DY70 1-387): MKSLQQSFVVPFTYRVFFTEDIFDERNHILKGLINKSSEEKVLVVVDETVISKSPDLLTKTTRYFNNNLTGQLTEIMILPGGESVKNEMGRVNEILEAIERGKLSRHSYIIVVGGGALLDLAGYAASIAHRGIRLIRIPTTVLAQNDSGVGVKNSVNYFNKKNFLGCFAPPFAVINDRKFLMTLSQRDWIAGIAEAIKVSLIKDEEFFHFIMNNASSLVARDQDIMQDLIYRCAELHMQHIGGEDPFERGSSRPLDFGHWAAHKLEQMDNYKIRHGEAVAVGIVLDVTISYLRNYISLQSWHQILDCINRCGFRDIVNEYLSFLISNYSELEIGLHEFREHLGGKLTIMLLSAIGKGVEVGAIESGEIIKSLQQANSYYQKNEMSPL

Sm-EboD [2] = target: T1, Sm-EboD; assay: TLC, product formation; assay type: biochemical; details: NAD+, Co2+; Tris-HCl pH 7.5; 37°C

SMILES | large-scale reaction, HR-MS, 1D and 2D NMR of isolated product (Sm-EboD [1]) | TLC, product formation (Sm-EboD [2])
O=C1C[C@@H](O)[C@@H](O)[C@@H](O)[C@@H]1O [DEI, 2-deoxy-4-epi-scyllo-inosose] | revealed the identity of the compound to be 2-deoxy-4-epi-scyllo-inosose (DEI) | –
O=P(O)(O)OC[C@H]1OC(O)[C@@H](O)[C@@H](O)[C@@H]1O (some centres unmarked) [Man6P] | – | gave the same product with an even better conversion rate
